From patent US20130251822A1, “BIOCIDAL ALDEHYDE COMPOSITION” (priority 2011, published 2013)

Tests used:
Pseudomonas aeruginosa = test: chlorine dioxide (ClO2) and TTPC versus Pseudomonas aeruginosa, log reduction; format: cell-based; settings: 10^5 ml
Procedure: A test with chlorine dioxide (ClO2) and TTPC versus Pseudomonas aeruginosa was performed at 10^5 ml with ClO2 of 10 ppm. This alone gave a 1 log reduction in 30 min exposure. TTPC alone at 50 ppm gave a 2 log reduction. The combination of ClO2 and TTPC of 5ppm and 10 ppm gave a 5 log reduction in 30 min.

[1] = cited from earlier work
[2] = test system: sulfur reducing bacteria (SRB); test: efficacy on sulfur reducing bacteria; format: cell-based
From the text: (§1) As such there is actually a slight increase in planktonic microbes which are more susceptible to biocide/TTPC effects. Individual biocides affect the physiology of the cell quite differently. […] This is an example of enhanced […]. The importance of the environmental parameter cannot be underestimated based upon the foregoing results. TTPC has a similar margin of exposure as the quats used for killing of aerobic organisms. […] The minimum inhibitory concentration (MIC) for the TTPC usage is 50-500 ppm. Therefore it is safe regarding corrosiveness, an important facet in instrument sterilization. […] The faster cidal action is due basically to the chemistry difference between amine quats and phosphonium salts. The ammonium quats have longer alkyl chains. Instead of amine the difference is a phosphonium ion but also importantly is the alkyl chain length. It has been determined that there is an optimal length for anti-bacterial effectiveness. It was dependent upon chain length and attachment moieties. […] Usually the longer chain was better but not in these cases. […] TTPC did. There are great differences between Gram + and Gram − bacteria in their cell walls. […] The Gram − wall is complicated. It has in addition to the wall of G+ an outer membrane of lipopolysaccharide and phospholipids that protects the cell.

[3] = effectiveness based upon a 5 log reduction in oil frac water; format: cell-based
From the text: as §1

[4] = test system: MRSA, B. subtillis, E coli, pseudomonas aeruginosa, candida; test: kill of test microorganisms in allotted time of 30 minutes; format: cell-based
From the text: as §1

[5] = minimum inhibitory concentration (MIC); format: cell-based
From the text: as §1

[6] = effective kill time based upon log reduction, TTPC versus dual chain quaternary ammonium; format: cell-based; settings: TTPC alone
Procedure: (§2) When TTPC was added to the core glutaraldehyde or OPA as a substitute for dual chain quaternary ammonium the effective kill time was twice as fast (2×) based upon log reduction. Similarly, the TTPC reduced the effective kill time of acid-producing bacteria (APB) by almost 50%. Although the kill speed of TTPC alone was 20% slower than the glut/quat formula of copending U.S. patent application Ser. No. 12/584,648, when incorporated with glutaraldehyde as a substitute for dual chain quaternary ammonium the kill time […] to four times faster, evidencing the synergism of the present combination.

[7] = test system: acid-producing bacteria (APB); test: effective kill time of acid-producing bacteria; format: cell-based
Procedure: as §2

Structure (SMILES): [O][Cl+][O-] [ClO2, chlorine dioxide]
- log reduction (Pseudomonas aeruginosa; ClO2 of 10 ppm alone, 30 min exposure): 1 log reduction

Structure (SMILES): O=Cc1ccccc1C=O [OPA, orthophthalaldehyde]
- disinfection time ([1]; high level disinfectant, 20-22 degrees C.): twelve

Structure (SMILES): CCCCCCCCCCCCCC[P+](CCCC)(CCCC)CCCC.[Cl-] [TTPC, tributyl tetradecyl phosphonium chloride]
- log reduction (Pseudomonas aeruginosa; TTPC alone at 50 ppm): 2 log reduction
- efficacy on sulfur reducing bacteria (SRB) [2]: almost equally effective
- effectiveness relative to original glut/quat formula [3]: 2 ×
- kill of all the test bacteria in the allotted time [4]: did
- minimum inhibitory concentration (MIC) [5]: 50-500 ppm
- kill speed slower than the glut/quat formula [6]: 20%
- reduction of effective kill time [7]: ~50%

Structure (SMILES): O=CCCCC=O [glutaraldehyde, Glutaraldehyde]
- residence time for disinfection ([1]; controlled temperature from 20 C to 25-30 C): 45 to 90 min
